From ChEMBL document CHEMBL4024712, “Synthesis, stability and mechanistic studies of potent anticryptococcal hexapeptides” (Eur J Med Chem, 2017)
Values after ≈ are worked out from the molar mass of the structure shown. Non-standard residues stand in square brackets, D forms with d. Residues, ends and D or L forms follow the SMILES beside them. His(τ-Bzl) = N[C@@H](Cc1cn(Cc2ccccc2)cn1)C(=O)O; Phe(4-NH2) = Nc1ccc(C[C@H](N)C(=O)O)cc1; Phe(4-Me) = Cc1ccc(C[C@H](N)C(=O)O)cc1; Cha = N[C@@H](CC1CCCCC1)C(=O)O; dOrn = NCCC[C@@H](N)C(=O)O; Nle = CCCC[C@H](N)C(=O)O; Orn = NCCC[C@H](N)C(=O)O; Dab = NCC[C@H](N)C(=O)O

Assays:
[1] = tested on: Pseudomonas aeruginosa; assay: Anti-bacterial activity against Pseudomonas aeruginosa ATCC 27853 by CLSI method; type: functional
[2] = tested on: Mycobacterium intracellulare; assay: Anti-bacterial activity against Mycobacterium intracellulare ATCC 23068 after 68 to 72 hrs by Alamar blue assay; type: functional, cell-based
[3] = tested on: Candida albicans; assay: Antifungal activity against Candida albicans ATCC 90028 after 18 to 24 hrs by Alamar blue assay; type: functional
[4] = tested on: Pichia kudriavzevii; assay: Antifungal activity against Candida krusei ATCC 6258 after 18 to 24 hrs by Alamar blue assay; type: functional
[5] = tested on: Cryptococcus neoformans; assay: Fungicidal activity against Cryptococcus neoformans ATCC 90113 after 68 to 72 hrs by Alamar blue assay; type: functional
[6] = tested on: Nakaseomyces glabratus; assay: Antifungal activity against Candida glabrata ATCC 90030 after 18 to 24 hrs by Alamar blue assay; type: functional
[7] = tested on: Aspergillus fumigatus; assay: Antifungal activity against Aspergillus fumigatus ATCC 90906 after 68 to 72 hrs by Alamar blue assay; type: functional
[8] = tested on: Vero; assay: Cytotoxicity against African green monkey Vero cells up to 10 ug/ml after 48 hrs by neutral red dye based assay; type: cell-based; settings: chlorocebus sabaeus
[9] = tested on: Cryptococcus neoformans; assay: Antifungal activity against Cryptococcus neoformans ATCC 90113 after 68 to 72 hrs by Alamar blue assay; type: functional
[10] = tested on: Escherichia coli; assay: Anti-bacterial activity against Escherichia coli ATCC 35218 by CLSI method; type: functional
[11] = tested on: Staphylococcus aureus; assay: Anti-bacterial activity against Staphylococcus aureus ATCC 29213 by CLSI method; type: functional
[12] = tested on: Staphylococcus aureus; assay: Anti-bacterial activity against methicillin-resistant Staphylococcus aureus ATCC 33591 by CLSI method; type: functional
[13] = tested on: Pichia kudriavzevii; assay: Fungicidal activity against Candida krusei ATCC 6258 after 18 to 24 hrs by Alamar blue assay; type: functional
[14] = tested on: Staphylococcus aureus; assay: Bactericidal activity against Staphylococcus aureus ATCC 29213 by CLSI method; type: functional
[15] = Pichia kudriavzevii, ATCC 6258, read-out: IC50
[16] = Escherichia coli, ATCC 35218, read-out: IC50
[17] = Staphylococcus aureus, ATCC 29213, read-out: IC50
[18] = Staphylococcus aureus, ATCC 33591, read-out: IC50

Row | Compound | IC50 [1] | IC50 [2] | IC50 [3] | IC50 [4] | MFC [5] [µg/mL] | IC50 [6] | IC50 [7] | Activity [8] | MIC [9] [µg/mL] | IC50 [10] | IC50 [4, 15] [µg/mL] | IC50 [9] [µg/mL] | further results
1 | CC[C@H](C)[C@H](NC(=O)[C@H](CC1CCCCC1)NC(=O)[C@H](CC(C)C)NC(=O)[C@@H](N)CCCN)C(=O)N[C@H](Cc1ccccc1)C(=O)N[C@@H](Cc1cn(Cc2ccccc2)cn1)C(N)=O (H-[Orn]L[Cha]I[dF][His(τ-Bzl)]-NH2) | Not Active | Not Active | Not Active | Not Active | 2.5 (≈ 2.82 µM) | Not Active | Not Active | Non-Toxic | – | – | – | – | –
2 | CC[C@H](C)[C@H](NC(=O)[C@H](CC1CCCCC1)NC(=O)[C@@H]1CCCN1C(=O)[C@@H](N)CCCN)C(=O)N[C@H](Cc1ccccc1)C(=O)N[C@@H](Cc1cn(Cc2ccccc2)cn1)C(N)=O (H-[Orn]P[Cha]I[dF][His(τ-Bzl)]-NH2) | Not Active | Not Active | Not Active | Not Active | 2.5 (≈ 2.88 µM) | Not Active | Not Active | Non-Toxic | – | – | – | – | –
3 | CCCC[C@H](NC(=O)[C@@H](N)CCCN)C(=O)N[C@@H](CC1CCCCC1)C(=O)N[C@H](C(=O)N[C@H](Cc1ccccc1)C(=O)N[C@@H](Cc1cn(Cc2ccccc2)cn1)C(N)=O)[C@@H](C)CC (H-[Orn][Nle][Cha]I[dF][His(τ-Bzl)]-NH2) | Not Active | Not Active | Not Active | Not Active | 2.5 (≈ 2.82 µM) | Not Active | Not Active | Non-Toxic | – | – | – | – | –
4 | CC[C@H](C)[C@H](NC(=O)[C@H](CC1CCCCC1)NC(=O)[C@H]1CCCN1C(=O)[C@@H](N)CCCN)C(=O)N[C@H](Cc1ccccc1)C(=O)N[C@@H](Cc1cn(Cc2ccccc2)cn1)C(N)=O (H-[Orn][dP][Cha]I[dF][His(τ-Bzl)]-NH2) | Not Active | Not Active | Not Active | Not Active | 2.5 (≈ 2.88 µM) | Not Active | Not Active | Non-Toxic | 2.5 (≈ 2.88 µM) | – | – | – | –
5 | CC(C)[C@H](NC(=O)[C@H](CC1CCCCC1)NC(=O)[C@@H](Cc1c[nH]c2ccccc12)NC(=O)[C@@H](N)CCCN)C(=O)N[C@H](Cc1ccccc1)C(=O)N[C@@H](Cc1cn(Cc2ccccc2)cn1)C(N)=O (H-[Orn][dW][Cha]V[dF][His(τ-Bzl)]-NH2) | Not Active | – | Not Active | Not Active | 1.25 (≈ 1.32 µM) | Not Active | Not Active | Non-Toxic | 1.25 (≈ 1.32 µM) | Not Active | – | – | –
6 | CC(C)C[C@@H](NC(=O)[C@H](CC1CCCCC1)NC(=O)[C@@H](Cc1c[nH]c2ccccc12)NC(=O)[C@@H](N)CCCN)C(=O)N[C@H](Cc1ccccc1)C(=O)N[C@@H](Cc1cn(Cc2ccccc2)cn1)C(N)=O (H-[Orn][dW][Cha][dL][dF][His(τ-Bzl)]-NH2) | Not Active | – | Not Active | – | – | Not Active | Not Active | Non-Toxic | 2.5 (≈ 2.61 µM) | Not Active | 20 (≈ 20.9 µM) | – | MIC ([11]; Staphylococcus aureus, ATCC 29213): 20 µg/mL (≈ 20.9 µM)
7 | Cc1ccc(C[C@H](NC(=O)[C@@H](Cc2ccccc2)NC(=O)[C@@H](Cc2c[nH]c3ccccc23)NC(=O)[C@@H](N)CCCN)C(=O)N[C@H](Cc2ccccc2)C(=O)N[C@@H](Cc2c[nH]cn2)C(N)=O)cc1 (H-[Orn][dW][dF][Phe(4-Me)][dF]H-NH2) | Not Active | Not Active | Not Active | Not Active | 1.25 (≈ 1.37 µM) | Not Active | Not Active | Non-Toxic | 1.25 (≈ 1.37 µM) | Not Active | – | 0.8 (≈ 0.879 µM) | IC50 [11]: Not Active; IC50 [12]: Not Active
8 | Cc1ccc(C[C@H](NC(=O)[C@@H](Cc2ccccc2)NC(=O)[C@@H](Cc2c[nH]c3ccccc23)NC(=O)[C@@H](N)CCCN)C(=O)N[C@H](Cc2ccccc2)C(=O)N[C@@H](CCN)C(N)=O)cc1 (H-[Orn][dW][dF][Phe(4-Me)][dF][Dab]-NH2) [listing 1 of 2 here] | Not Active | Not Active | Not Active | – | – | Not Active | Not Active | Non-Toxic | – | – | 14.8 (≈ 16.9 µM) | 0.8 (≈ 0.916 µM) | IC50 [10, 16]: 6 µg/mL (≈ 6.87 µM); IC50 [11, 17]: 16.1 µg/mL (≈ 18.4 µM); IC50 [12, 18]: > 20 µg/mL
9 | Cc1ccc(C[C@H](NC(=O)[C@@H](Cc2ccccc2)NC(=O)[C@@H](Cc2c[nH]c3ccccc23)NC(=O)[C@@H](N)CCCN)C(=O)N[C@H](Cc2ccccc2)C(=O)N[C@@H](CCN)C(N)=O)cc1 (H-[Orn][dW][dF][Phe(4-Me)][dF][Dab]-NH2) [listing 2 of 2 here] | – | – | – | – | 1.25 (≈ 1.43 µM) | – | – | – | 1.25 (≈ 1.43 µM) | – | – | – | MIC ([4]; Pichia kudriavzevii, ATCC 6258): 20 µg/mL (≈ 22.9 µM); MFC [13]: 20 µg/mL (≈ 22.9 µM)
10 | Cc1ccc(C[C@H](NC(=O)[C@@H](Cc2ccccc2)NC(=O)[C@@H](Cc2c[nH]c3ccccc23)NC(=O)[C@@H](N)CCCN)C(=O)N[C@H](Cc2ccccc2)C(=O)N[C@H](Cc2c[nH]cn2)C(N)=O)cc1 (H-[Orn][dW][dF][Phe(4-Me)][dF][dH]-NH2) | Not Active | Not Active | Not Active | – | 1.25 (≈ 1.37 µM) | Not Active | Not Active | Non-Toxic | 1.25 (≈ 1.37 µM) | – | 5.16 (≈ 5.67 µM) | 0.8 (≈ 0.879 µM) | IC50 [10, 16]: 12.7 µg/mL (≈ 14 µM); MIC ([4]; Pichia kudriavzevii, ATCC 6258): 10 µg/mL (≈ 11 µM); MFC [13]: 10 µg/mL (≈ 11 µM); IC50 [11, 17]: 18 µg/mL (≈ 19.8 µM); IC50 [12, 18]: > 20 µg/mL
11 | Cc1ccc(C[C@H](NC(=O)[C@@H](Cc2ccccc2)NC(=O)[C@@H](Cc2c[nH]c3ccccc23)NC(=O)[C@@H](N)CCCN)C(=O)N[C@H](Cc2ccccc2)C(=O)N[C@H](CCCN)C(N)=O)cc1 (H-[Orn][dW][dF][Phe(4-Me)][dF][dOrn]-NH2) | Not Active | Not Active | Not Active | – | 1.25 (≈ 1.41 µM) | Not Active | Not Active | Non-Toxic | 1.25 (≈ 1.41 µM) | – | 9.7 (≈ 10.9 µM) | 0.67 (≈ 0.755 µM) | IC50 [10, 16]: > 20 µg/mL; MIC ([4]; Pichia kudriavzevii, ATCC 6258): 20 µg/mL (≈ 22.5 µM); MFC [13]: 20 µg/mL (≈ 22.5 µM); IC50 [11, 17]: > 20 µg/mL; IC50 [12, 18]: > 20 µg/mL
12 | Cc1ccc(C[C@H](NC(=O)[C@@H](Cc2ccccc2)NC(=O)[C@@H](Cc2c[nH]c3ccccc23)NC(=O)[C@@H](N)Cc2ccc(N)cc2)C(=O)N[C@H](Cc2ccccc2)C(=O)N[C@@H](Cc2cn(Cc3ccccc3)cn2)C(N)=O)cc1 (H-[Phe(4-NH2)][dW][dF][Phe(4-Me)][dF][His(τ-Bzl)]-NH2) | Not Active | Not Active | Not Active | Not Active | 5 (≈ 4.77 µM) | Not Active | Not Active | Non-Toxic | – | Not Active | – | – | MBC [14]: 20 µg/mL (≈ 19.1 µM); IC50 [12]: Not Active
